From patent US20260265247A1, “MULTI-KINASE INHIBITORS, COMPOSITIONS THEREOF, AND METHODS OF USING THE SAME” (BIOFRONT LTD, priority 2022, published 2026)

Columns and labels:
Assay type in all cases: biochemical
HPK1 = target: T1, HPK1 (Homo sapiens, UniProt Q92918); assay: HPK1 Enzymatic Assay (ADP-Glo); conditions: enzyme inhibition; MBP substrate, ATP 20 μM mixture
T1 construct: purchased Signal Chem M23-11G-10
T1 sequence (Q92918 1-346 limits assumed): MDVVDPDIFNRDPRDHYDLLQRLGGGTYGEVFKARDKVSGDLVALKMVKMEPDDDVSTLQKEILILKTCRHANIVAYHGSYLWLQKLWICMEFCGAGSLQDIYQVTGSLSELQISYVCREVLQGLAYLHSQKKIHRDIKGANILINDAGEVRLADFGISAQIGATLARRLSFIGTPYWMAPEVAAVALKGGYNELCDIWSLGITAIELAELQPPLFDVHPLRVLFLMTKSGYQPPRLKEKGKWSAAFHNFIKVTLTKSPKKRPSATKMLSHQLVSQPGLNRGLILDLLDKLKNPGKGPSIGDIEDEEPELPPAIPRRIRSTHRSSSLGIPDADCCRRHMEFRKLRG
Procedure: The compound was dissolved in 100% DMSO at the concentration of 10 mM. The HPK1 protein was purchased from Signal Chem (M23-11G-10). 2.5 μL per well of 2× HPK1 protein was added to assay plate containing the test compound, centrifuged at 1500 rpm for 1 minute, and then incubated at 25° C. for 60 minutes. MBP protein was purchased from Signal Chem (M42-51N) and ATP was purchased from Promega (V9102). The two were added 2.5 μL per well mixture of 2× MBP (0.2 ug/ul) and ATP (20 μM), centrifuged at 1500 rpm for 1 minute, then incubated at 25° C. for 60 minutes. Then added 5 μL of ADP-Glo from Promega (V9102) to the assay plate and depleted the unconsumed ATP for 60 minutes. Then centrifuged at 1500 rpm for 1 minute and incubated at 25° C. for 60 minutes. Finally, 10 μL of the kinase assay reagent from Promega (V9102) was added to the assay plate to convert ADP to ATP, centrifuged at 1500 rpm for 1 minute, incubate at 25° C. for 40 minutes. After 40 minutes incubation, the fluorescence was determined. Based on the results, the IC50 value of the compound was calculated.

FLT3-ITD = target: T2, FLT3-ITD (Homo sapiens, UniProt P36888); assay: FLT3-ITD Enzymatic Assay; conditions: enzyme inhibition; peptide 2 3 μM, ATP 97.2 μM
T2 sequence (P36888 1-993): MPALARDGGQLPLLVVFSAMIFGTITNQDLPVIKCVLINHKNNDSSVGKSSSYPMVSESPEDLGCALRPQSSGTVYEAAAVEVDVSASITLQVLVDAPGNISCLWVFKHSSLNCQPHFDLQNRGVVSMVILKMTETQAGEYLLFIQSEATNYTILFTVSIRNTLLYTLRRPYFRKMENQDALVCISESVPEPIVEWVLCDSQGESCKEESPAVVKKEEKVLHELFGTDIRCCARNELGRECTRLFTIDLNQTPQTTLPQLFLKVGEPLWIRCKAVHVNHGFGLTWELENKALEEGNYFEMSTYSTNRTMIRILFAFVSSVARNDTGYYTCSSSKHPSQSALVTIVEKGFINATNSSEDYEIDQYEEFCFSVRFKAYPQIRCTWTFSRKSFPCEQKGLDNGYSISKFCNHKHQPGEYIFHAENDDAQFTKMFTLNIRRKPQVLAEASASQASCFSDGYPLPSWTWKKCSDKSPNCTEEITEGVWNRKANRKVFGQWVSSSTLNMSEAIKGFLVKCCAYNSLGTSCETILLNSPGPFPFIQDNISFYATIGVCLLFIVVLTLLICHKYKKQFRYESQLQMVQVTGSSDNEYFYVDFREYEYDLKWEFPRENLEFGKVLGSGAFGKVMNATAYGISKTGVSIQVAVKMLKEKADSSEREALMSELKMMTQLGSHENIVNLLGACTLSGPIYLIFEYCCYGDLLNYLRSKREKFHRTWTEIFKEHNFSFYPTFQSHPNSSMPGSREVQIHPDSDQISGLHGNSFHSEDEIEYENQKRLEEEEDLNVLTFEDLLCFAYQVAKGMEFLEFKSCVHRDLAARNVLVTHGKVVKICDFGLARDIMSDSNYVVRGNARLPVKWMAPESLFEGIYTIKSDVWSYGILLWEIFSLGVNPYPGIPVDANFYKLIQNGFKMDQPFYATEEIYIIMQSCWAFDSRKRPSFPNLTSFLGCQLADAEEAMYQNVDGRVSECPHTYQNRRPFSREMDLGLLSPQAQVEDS
Procedure: The compound was dissolved in 100% DMSO at the concentration of 10 mM. The FLT3-ITD protein was purchased from Invitrogen (PV6191). 10 μL per well of 2.5× FLT3-ITD protein was added to assay plate containing the test compound, centrifuged at 1000 rpm for 1 minute, and then incubated at 25° C. for 10 minutes. Peptide 2 was purchased from GL Biochem (112394) and ATP was purchased from Promega (V9102). The two were added 15 μL per well mixture of 1.67× peptide 2 (final conc. is 3 μM) and ATP (final conc. is 97.2 μM), centrifuged at 1000 rpm for 1 minute, then incubated at 25° C. for 40 minutes. Then added 30 μL of stop buffer (100 mM HEPES pH7.5, 0.015% Brij-35, 0.2% Coating Reagent 3, 50 mM EDTA) to the assay plate and centrifuged at 1000 rpm for 1 minute. the product was determined. Based on the results, the IC50 value of the compound was calculated.

Aurora A = target: T3, Aurora A (Homo sapiens, UniProt O14965); assay: Aurora A Enzymatic Assay; conditions: enzyme inhibition; peptide 21 3 μM, ATP 14.58 μM
T3 construct: purchased Carna 05-101
T3 sequence (O14965 1-403): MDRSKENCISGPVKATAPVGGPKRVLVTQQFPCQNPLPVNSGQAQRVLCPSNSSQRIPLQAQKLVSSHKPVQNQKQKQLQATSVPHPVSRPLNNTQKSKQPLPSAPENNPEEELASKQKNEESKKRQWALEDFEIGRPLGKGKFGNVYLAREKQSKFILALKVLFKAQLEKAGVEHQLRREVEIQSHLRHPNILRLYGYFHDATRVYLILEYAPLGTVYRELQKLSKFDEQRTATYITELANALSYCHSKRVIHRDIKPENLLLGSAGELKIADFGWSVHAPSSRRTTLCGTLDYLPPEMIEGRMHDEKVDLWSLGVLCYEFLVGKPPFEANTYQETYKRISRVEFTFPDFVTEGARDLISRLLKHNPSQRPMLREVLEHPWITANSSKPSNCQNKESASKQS
Procedure: The compound was dissolved in 100% DMSO at the concentration of 10 mM. The Aurora A protein was purchased from Carna (05-101). 10 μL per well of 2.5× Aurora A protein was added to assay plate containing the test compound, centrifuged at 1000 rpm for 1 minute, and then incubated at 25° C. for 10 minutes. Peptide 21 was purchased from GL Biochem (116370) and ATP was purchased from Promega (V9102). The two were added 15 μL per well mixture of 1.67× peptide 21 (final conc. is 3 μM) and ATP (final conc. is 14.58 μM), centrifuged at 1000 rpm for 1 minute, then incubated at 25° C. for 40 minutes. Then added 30 μL of stop buffer (100 mM HEPES pH7.5, 0.015% Brij-35, 0.2% Coating Reagent 3, 50 mM EDTA) to the assay plate and centrifuged at 1000 rpm for 1 minute. the product was determined. Based on the results, the IC50 value of the compound was calculated.

IC50 (HPK1) [nM]	IC50 (FLT3-ITD) [nM]	IC50 (Aurora A) [nM]	SMILES
18.9	2.2	3.1	O=C1NCCCN1c1nc(-c2cnc3[nH]cc(C4CC4)c3c2Cl)cs1 [Compound 5]
14.4	11.6	27.4	O=C1NC2(CCNC2)C(=O)N1c1cccc(-c2cnc3[nH]cc(C4CC4)c3c2Cl)c1 (stereo not drawn) [Compound 10, 3-(3-(4-chloro-3-cyclopropyl-1H-pyrrolo[2,3-b]pyridin-5-yl)phenyl)-1,3,7-triazaspiro[4.4]nonane-2,4-dione]
20.6	37.8	35.8	CCc1c[nH]c2ncc(-c3cccc(-n4cn[nH]c4=O)c3)c(Cl)c12 [Compound 1, 4-(3-(4-chloro-3-ethyl-1H-pyrrolo[2,3-b]pyridin-5-yl)phenyl)-2,4-dihydro-3H-1,2,4-triazol-3-one]
18.2	23.7	53.6	O=c1[nH]ncn1-c1cccc(-c2cnc3[nH]cc(C4CC4)c3c2Cl)c1 [Compound 2, 4-(3-(4-chloro-3-cyclopropyl-1H-pyrrolo[2,3-b]pyridin-5-yl)phenyl)-2,4-dihydro-3H-1,2,4-triazol-3-one]
27.6	14.6	22.9	O=C1NCCN1c1cccc(-c2cnc3[nH]cc(C4CC4)c3c2Cl)c1 [Compound 4]
25.7	22.5	13.3	CCc1c[nH]c2ncc(-c3cccc(N4CCNC4=O)c3)c(Cl)c12 [Compound 3]
827	93.6	78.9	N#Cc1cc(-c2cnc3[nH]cc(C4CC4)c3c2Cl)cc(N2CCCNC2=O)c1 [Compound 13, 3-(4-chloro-3-cyclopropyl-1H-pyrrolo[2,3-b]pyridin-5-yl)-5-(2-oxotetrahydropyrimidin-1(2H)-yl)benzonitrile]
14.3	6.1	9.5	O=C1NCCN1c1cccc(-c2cnc3[nH]cc(C4CC4)c3c2Cl)n1 [Compound 6, 1-(6-(4-chloro-3-cyclopropyl-1H-pyrrolo[2,3-b]pyridin-5-yl)pyridin-2-yl) imidazolidin-2-one]
126	4.2	93.7	Cc1sc(N2CCCNC2=O)nc1-c1cnc2[nH]cc(C3CC3)c2c1Cl [Compound 7, 1-(4-(4-chloro-3-cyclopropyl-1H-pyrrolo[2,3-b]pyridin-5-yl)-5-methylthiazol-2-yl)tetrahydropyrimidin-2(1H)-one]
> 1000	> 990	> 1000	CCN(C)C(=O)c1c[nH]c2ncc(-c3cccc(N4CCCNC4=O)c3)c(Cl)c12 [Compound 12, 4-Chloro-N-ethyl-N-methyl-5-(3-(2-oxotetrahydropyrimidin-1 (2H)-yl)phenyl)-1H-pyrrolo[2,3-b]pyridine-3-carboxamide]
15.7	22.3	34.3	O=C1NC2(CCNC2)CN1c1cccc(-c2cnc3[nH]cc(C4CC4)c3c2Cl)c1 (stereo not drawn) [Compound 11, 3-(3-(4-chloro-3-cyclopropyl-1H-pyrrolo[2,3-b]pyridin-5-yl)phenyl)-1,3,7-triazaspiro[4.4]nonan-2-one]
2	0.8	172	CCc1c[nH]c2ncc(-c3cccc(N4CCCNC4=O)c3)c(Cl)c12 [Compound 9]
151	37.4	7.1	CS(=O)(=O)c1ccc(-c2cnc3[nH]cc(C4CC4)c3c2Cl)cc1N1CCCNC1=O [Compound 14, 1-(5-(4-chloro-3-cyclopropyl-1H-pyrrolo[2,3-b]pyridin-5-yl)-2-(methylsulfonyl)phenyl)tetrahydropyrimidin-2(1H)-one]
2.4	6	7.8	O=C1NCCCN1c1cccc(-c2cnc3[nH]cc(C4CC4)c3c2Cl)n1 [Compound 8, 1-(6-(4-chloro-3-cyclopropyl-1H-pyrrolo[2,3-b]pyridin-5-yl)pyridin-2-yl)tetrahydropyrimidin-2(1H)-one]
